Results reported in US8569229B2, “Compositions and methods which modulate G-protein signaling for the treatment of inflammatory disorders such as asthma and allergic conjunctivitis” (The Children's Hospital of Philadelphia, priority 2008, dated 2013).
Entries after “also recorded” stand apart in the source; their conditions may differ. Where two headings read alike, the source gives them in different places. Numbered stars: 1 amine (or outer) side, 2 acyl side, 3 side chain; on linkers, the order of the positions; unused ones are H or OH. Bridge positions count the residues as written; N and C are the ends. Square brackets hold non-standard residues; d marks the D form. Ends that are not written are not given here. Peptide text beside a SMILES is read from it. I, II: the chains in the order shown. Actinocin(9to1) = Cc1c2oc3c(C)ccc(C(=O)[*:1])c3nc-2c(C(=O)[*:2])c(N)c1=O; NMeV = CN[C@H](C(=O)O)C(C)C; Sar = CNCC(=O)O

Legend:
[1] = system: ERK1/2; test: Immunoblot analysis of ERK1/2 phosphorylation in ASM cells; type: cell-based, human
Description: (§1) Detection of PDE4D5 mRNA transcripts: Total RNA was extracted from the cultured ASM cells using the TRIzol method (Invitrogen), and cDNAs were isolated by RT-PCR using the SuperScript First Strand Synthesis System kit from Invitrogen, with the following oligonucleotide primer sets (Integrated DNA Technologies): for PDE4D5, 5′-[…]-3′ (forward; SEQ ID NO: 2) and 5′-[…]-3′ (reverse; SEQ ID NO: 3); and for β-actin, 5′-[…]-3′ (forward; SEQ ID NO: 4) and 5′-[…]-3′ (reverse; SEQ ID NO: 5). The reaction volume was 20 μl and cycling conditions used were 35 cycles of 30 sec denaturation at 95° C., followed by 30 sec annealing at 60° C. and elongation at 72° C. for 30 sec. Ex-Tag (Takara Biotechnology) was used as DNA polymerase. […] Following protein extraction and the addition of gel-loading buffer, the extracts were loaded on a 10% SDS-PAGE gel for immunoblotting after transfer to a PVDF membrane. The membranes were then incubated overnight with monoclonal mouse anti-human primary antibodies directed against phospho-CREB and -ATF1, phospho-ERK1/2, or α-actin, and levels were detected by ECL after a 1-hr incubation with a 1:2,000 dilution of HRP-conjugated rabbit anti-mouse secondary antibody, followed by exposure to autoradiography film. The protein band intensities were quantified by densitometry. siRNA-mediated knockdown of PKA: ASM cells were seeded into 6-well plates and, at ˜40% confluency, the medium was replaced with the reduced serum-containing medium, Opti-MEM (Invitrogen). The cells were then transfected twice during a 24-hr interval with two pools of three siRNA duplexes, each pool targeted against the human PKAα or PKAγ catalytic subunits (Santa Cruz Biotechnology; sc-36240 and sc-36236, respectively), or with a non-targeted control (scrambled) siRNA duplex, using Oligofectamine (Invitrogen) as the transfection agent. The pools of siRNAs were applied to each well at a final concentration of 100 nM for each siRNA preparation. […] Transfection of ASM cells with adeno-βARK-ct: Adenovirus (adeno)-βARK-ct, an adenovirus vector encoding the βARK1 carboxyl-terminal domain which blocks Gβγ signaling (25,26), and adeno-β-gal, an adenovirus vector expressing lacZ as a negative control, were constructed using the AdenoX adenovirus construction kit (BD-Clontech). Recombinant plaques were isolated and propagated in HEK293 cells (Invitrogen), with viral purification using the cesium chloride gradient method, and viral titer detected by plaque assay. The ASM cells were transfected with either of the adenoviral vectors at a multiplicity of infection (MOI) of 100, and experiments were conducted at 24 hr following adenoviral tranfections. Pharmacodynamic studies of constrictor and relaxation responsiveness in rabbit ASM tissues: Following initial sedation and subsequent general anesthesia with intramuscular injections of xylazine (10 mg/kg) and ketamine (50 mg/kg), respectively, rabbits were sacrificed with an intravenously administered overdose of sodium pentobarbital (100 mg/kg). As described previously (16), the tracheae were excised via open thoracotomy, the loose connective tissue and epithelium were scraped and removed, and the tracheae were divided into 8 ring segments, each of 6-8 mm in length. […] After these incubations, the tissues were placed in organ baths containing modified Krebs-Ringer solution aerated with 5% CO2 in oxygen (pH of 7.35-7.40), and attached to force transducers to continuously monitor isometric tension. […] The constrictor and relaxation dose-response curves were analyzed with respect to each tissue's maximal isometric contractile force (Tmax) to ACh and maximal relaxation response (Rmax) to isoproterenol from the initial level of active cholinergic contraction. Statistical analyses: Results are expressed as mean±SE values. Comparisons between groups were made using the Student's t-test (two-tailed) or ANOVA with Tukey's post-test analysis, where appropriate.

[2] = system: PDE4D5 mRNA; test: Detection of PDE4D5 mRNA transcripts by RT-PCR in ASM cells; type: cell-based, human
Description: as §1

[3] = system: CREB/ATF1; test: Immunoblot analysis of CREB/ATF1 phosphorylation in ASM cells; type: cell-based, human
Description: as §1

[4] = system: rabbit ASM tissues; test: Constrictor responsiveness to acetylcholine (ACh) in isolated rabbit ASM tissues, isometric tension in organ bath
Description: as §1

[5] = system: human ASM cells; test: Assay of cAMP PDE activity in ASM cell lysates; type: cell-based; conditions: for effect of pretreatment on PGE2-induced increase in PDE activity: PGE2 100 nM x 24 hr, peptides 30 μM (Example III)
[6] = system: rabbit ASM tissues; test: Relaxation responsiveness to isoproterenol in isolated rabbit ASM tissues half-maximally contracted with ACh
Description: as §1

[7] = system: human ASM cells; test: Assay of cAMP PDE activity in ASM cell lysates; type: cell-based; conditions: for effect of the agent alone on basal PDE activity: no cAMP-elevating agent
Procedure: Assay of cAMP PDE activity: Levels of cAMP PDE activity were assayed in ASM cell lysates using a colorimetric, non-radioactive enzymatic assay kit from Biomol, as per the manufacture's protocol. PDE activity was determined following exposure of ASM cells for 24 hr to either vehicle alone (control), PGE2 (100 μM), or forskolin (100 μM) in the absence and presence of pretreatment with rolipram (10 μM), cycloheximide (100 μM), actinomycin D (4 μM), or H89 (10 μM).
In each case, the measured levels of PDE activity were standardized to the protein content in the cell extracts.

[8] = PGE2 or forskolin x 24 hr (100 μM in text, 100 nM in legends)
[9] = salmeterol or isoproterenol 10 μM x 24 hr
[10] = vehicle-exposed control tissues

Molecule: COC(=O)[C@H](CC(C)C)NC(=O)c1ccc(NC[C@@H](N)CS)cc1-c1cccc2ccccc12 [GGTI-298]
- effect on PGE2-induced phosphorylation of ERK1/2 ([1]; PGE2 100 nM, 30 min): did not exhibit attenuated; also recorded: no effect
- effect on isoproterenol (β2AR agonist)-induced phosphorylation of ERK1/2 ([1]; isoproterenol 10 μM, 20 min): did not exhibit attenuated; also recorded: no effect

Molecule: O=C1Nc2ccc(I)cc2/C1=C/c1cc(Br)c(O)c(Br)c1 [GW5074]
- effect on PGE2-induced phosphorylation of ERK1/2 ([1]; PGE2 100 nM, 30 min): completely ablated; also recorded: prevents
- effect on isoproterenol (β2AR agonist)-induced phosphorylation of ERK1/2 ([1]; isoproterenol 10 μM, 20 min): completely abrogated; also recorded: prevents

Molecule: Oc1ccc(-c2nc(-c3ccncc3)c(-c3ccc(F)cc3)[nH]2)cc1 [SB202190]
- effect of pretreatment on PGE2-induced upregulated PDE4D5 mRNA expression ([2]; PGE2 100 nM, 6 hr): neither the p38 MAPK nor JNK inhibitor (lanes 5 and 6, respectively) had an attenuating effect
- effect of pretreatment on β2AR agonist (isoproterenol)-induced upregulated PDE4D5 mRNA expression ([2]; isoproterenol 10 μM, 6 hr): unaffected; also recorded: no effect
- effect on PGE2-induced phosphorylation of ERK1/2 ([1]; PGE2 100 nM, 30 min): neither PGE2-induced phosphorylation of ERK1/2 nor CREB/ATF was affected
- effect on PGE2-induced phosphorylation of CREB/ATF1 ([3]; PGE2 100 nM, 30 min): neither PGE2-induced phosphorylation of ERK1/2 nor CREB/ATF was affected

Molecule: Oc1c2ccccc2c2c3c(cccc13)N=N2 [SP600125]
- effect of pretreatment on β2AR agonist (isoproterenol)-induced upregulated PDE4D5 mRNA expression ([2]; isoproterenol 10 μM, 6 hr): no effect

Molecule: CN(C)S(=O)(=O)c1ccc2c(c1)/C(=C/c1cc3c([nH]1)CCCC3)C(=O)N2 [SU6656]
- effect of pretreatment on PGE2-induced upregulated PDE4D5 mRNA expression ([2]; PGE2 100 nM, 6 hr): ablated
- effect of pretreatment on PGE2-induced upregulated PDE4D5 mRNA expression ([2]; PGE2 100 nM, 6 hr, listed as Src inhibitor): markedly inhibited
- effect of pretreatment on β2AR agonist (isoproterenol)-induced upregulated PDE4D5 mRNA expression ([2]; isoproterenol 10 μM, 6 hr): prevented; also recorded: ablated
- effect on PGE2-induced phosphorylation of ERK1/2 ([1]; PGE2 100 nM, 30 min): largely prevented; also recorded: ablated
- effect on PGE2-induced phosphorylation of CREB/ATF1 ([3]; PGE2 100 nM, 30 min): largely prevented; also recorded: ablated

Molecule: N#CC(=C(/N)Sc1ccccc1N)/C(C#N)=C(\N)Sc1ccccc1N [U0126]
- effect of pretreatment on PGE2-induced increase in constrictor responsiveness to ACh [4]: abrogated
- effect of pretreatment on salmeterol-induced increase in constrictor responsiveness to ACh [4]: completely abrogated; also recorded: prevents
- effect of the agent alone on constrictor responses to ACh [4]: no significant effect; also recorded: did not exhibit any significant changes
- effect of pretreatment on PGE2-induced upregulated PDE4D5 mRNA expression [2]: largely prevented; also recorded: ablated
- effect of pretreatment on β2AR agonist (isoproterenol)-induced upregulated PDE4D5 mRNA expression [2]: largely prevented; also recorded: ablated
- effect on PGE2-induced phosphorylation of ERK1/2 [1]: completely abrogated; also recorded: ablated
- effect on isoproterenol (β2AR agonist)-induced phosphorylation of ERK1/2 [1]: ablated
- effect of pretreatment on PGE2- and forskolin-induced increases in PDE activity [5]: completely ablated
- effect of pretreatment on salmeterol- and isoproterenol-induced increase in PDE activity [5]: prevented; also recorded: ablated
- effect of the agent alone on basal PDE activity [5]: neither H89 nor U0126 alone had a significant effect
- effect on PGE2-induced phosphorylation of CREB/ATF1 [3]: abrogated; also recorded: ablated
- effect of pretreatment on PGE2-induced impaired relaxation to isoproterenol [6]: abrogated
- effect of pretreatment on salmeterol-induced impaired relaxation to isoproterenol [6]: completely ablated; also recorded: prevents
- effect of the agent alone on relaxation responses to isoproterenol [6]: no significant effect; also recorded: did not exhibit any significant changes

Molecule: Cc1c2oc3c(C)ccc(C(=O)N[C@@H]4C(=O)N[C@H](C(C)C)C(=O)N5CCC[C@H]5C(=O)N(C)CC(=O)N(C)[C@@H](C(C)C)C(=O)O[C@@H]4C)c3nc-2c(C(=O)N[C@@H]2C(=O)N[C@H](C(C)C)C(=O)N3CCC[C@H]3C(=O)N(C)CC(=O)N(C)[C@@H](C(C)C)C(=O)O[C@@H]2C)c(N)c1=O [actinomycin D] (I: T[dV]P[Sar][NMeV] / II: T[dV]P[Sar][NMeV]; ester I:1-I:C, II:1-II:C; linker I:N-II:N via Actinocin(9to1))
- effect of pretreatment on PGE2- and forskolin-induced increases in PDE activity [5, 8]: completely ablated
- effect of pretreatment on salmeterol- and isoproterenol-induced increase in PDE activity [5, 9]: completely ablated
- effect of the agent alone on basal PDE activity [7]: neither actinomycin D nor cycloheximide alone significantly affected

Molecule: C[C@@H]1C[C@@H]([C@H](O)CC2CC(=O)NC(=O)C2)C(=O)[C@@H](C)C1 [cycloheximide]
- effect of pretreatment on PGE2- and forskolin-induced increases in PDE activity [5, 8]: completely ablated
- effect of pretreatment on salmeterol- and isoproterenol-induced increase in PDE activity [5, 9]: completely ablated
- effect of the agent alone on basal PDE activity [7]: neither actinomycin D nor cycloheximide alone significantly affected

Molecule: C=C[C@@]1(C)CC(=O)[C@]2(O)[C@@]3(C)[C@@H](O)CCC(C)(C)[C@@H]3[C@H](O)[C@H](OC(C)=O)[C@@]2(C)O1 [forskolin]
- PDE activity, fold above control ([7]; cells incubated 24 hr with the agent (PGE2 or forskolin 100 μM; salmeterol or isoproterenol 10 μM)): 4.01 fold

Molecule: MPS- Gαi2 (AAVALLPAVLLALLAKNNLKDCGLF; also: MPS attached) [Gαi2 blocking peptide]
- effect of pretreatment on PGE2-induced increase in PDE activity [5]: only a partial inhibitory effect
- effect of pretreatment on PGE2-induced increase in PDE activity ([5]; listed as anti-Gαi2 inhibitory peptide): only exerts a partial inhibitory effect

Molecule: pertussis toxin [PTX]
- effect of pretreatment on PGE2-induced increase in constrictor responsiveness to ACh ([4]; PGE2 100 nM x 24 hr): abrogated
- effect of the agent alone on constrictor responses to ACh [4, 10]: no significant effect
- effect of pretreatment on PGE2-induced upregulated PDE4D5 mRNA expression ([2]; PGE2 100 nM, 6 hr): markedly inhibited; also recorded: ablated
- effect of pretreatment on β2AR agonist (isoproterenol)-induced upregulated PDE4D5 mRNA expression ([2]; isoproterenol 10 μM, 6 hr): prevented; also recorded: ablated
- effect on PGE2-induced phosphorylation of ERK1/2 ([1]; PGE2 100 nM, 30 min): largely prevented; also recorded: ablated
- effect of pretreatment on PGE2-induced increase in PDE activity [5]: completely ablated
- effect of pretreatment on PGE2- and forskolin-induced increases in PDE activity [5, 8]: completely ablated
- effect of pretreatment on salmeterol- and isoproterenol-induced increase in PDE activity [5, 9]: completely abrogated; also recorded: ablated
- effect on PGE2-induced phosphorylation of CREB/ATF1 ([3]; PGE2 100 nM, 30 min): largely prevented; also recorded: ablated
- effect of pretreatment on PGE2-induced impaired relaxation to isoproterenol ([6]; PGE2 100 nM x 24 hr): abrogated
- effect of the agent alone on relaxation responses to isoproterenol [6, 10]: no significant effect
